One data set concerns the target T1, Sirt3 (Homo sapiens, UniProt Q9NTG7).
T1 construct: Expression and purification of Sirt1_133−747, Sirt2_56−356, and Sirt3_118−395 was carried out as described previously; made in house
T1 sequence (Q9NTG7 118-395): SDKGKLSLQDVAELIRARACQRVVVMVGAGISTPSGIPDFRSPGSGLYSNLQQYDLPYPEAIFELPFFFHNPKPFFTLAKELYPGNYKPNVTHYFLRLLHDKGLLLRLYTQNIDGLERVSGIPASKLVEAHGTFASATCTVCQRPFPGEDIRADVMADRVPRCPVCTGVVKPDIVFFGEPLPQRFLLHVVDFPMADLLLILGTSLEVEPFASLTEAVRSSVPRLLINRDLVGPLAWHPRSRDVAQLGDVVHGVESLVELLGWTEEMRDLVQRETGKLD
The data set is described as follows: Fluorescence-based ZMAL deacetylase activity assay, Sirt3. In kind it is biochemical. The note with it: non-irradiated; for IC50: read-out: Sirt3 inhibition, IC50. The protocol: (§1) The effect of the compounds on deacetylase activity of three human sirtuin isotypes (Sirt1–3) was investigated by a homogeneous fluorescence‐based assay, using (Z)‐Lys(acetyl)‐AMC (ZMAL) as substrate. In order to determine the impact of photoisomerization, the respective compounds were irradiated (365 nm, 5 min) in DMSO prior to incubation in the enzyme assay mixture. The results of the irradiated probes were finally compared to non‐irradiated measurements.
(§2) Cloning, expression and purification of recombinant proteins: Expression and purification of Sirt1_133−747, Sirt2_56−356, and Sirt3_118−395 was carried out as described previously.27 Identity and purity were verified by SDS‐PAGE.
(§3) Fluorescence‐based activity assay: The inhibitory effect of compounds on Sirt1–3 was detected via a previously reported fluorescence‐based assay.29 The synthetic substrate (Z)‐Lys(acetyl)‐AMC (ZMAL) is deacetylated by sirtuins, followed by tryptic digestion and thereby release of 7‐aminomethylcoumarin, leading to a fluorescent readout. Inhibition was determined by comparing percentage substrate conversion to a DMSO control after subtraction of the blank fluorescence signal. All compounds were tested at 100 or 50 μM and 10 μM respectively. […] IC50 values were calculated with OriginPro 9.0 G using a non‐linear regression to fit the dose response curve (Figure S6). An enzyme‐free blank control and a 100 % conversion control using AMC instead of ZMAL were measured as well. Inhibition measurements were performed in biological duplicates for all compounds. […]
(§4) Fluorescence-Based Activity Assay (ZMAL-Assay)
(§5) The influence of the synthesized compounds on the deacetylase activity of the class I sirtuins Sirt1–3 was determined in a homogenous fluorescence-based enzyme assay, using the artificial substrate Z-(Ac)Lys-AMC (ZMAL). ZMAL is processed by sirtuins yielding Z-Lys-AMC.
(§6) The latter is subsequently cleaved by tryptic digestion, releasing 7-amino-4-methylcoumarin (AMC), excitation of which leads to a fluorescent read out (λex=390 nm; λem=460 nm). Instead, […]
(§7) contribute to the fluorescence signal. Therefore, the fluorescence intensity is proportional to the activity of the respective sirtuin.
(§8) After subtraction of the blank fluorescence signal (without enzyme) from the signal of the respective probe, the residual signal intensity is related to a 100 % conversion control (AMC), […]
(§9) yielding the percentage substrate conversion. Comparison of the determined substrate conversion with a no-inhibition DMSO control yields the percentage inhibition at the respective […]
(§10) For determination of IC50, inhibitory activity of the respective compound was determined at 8 to 10 distinct concentrations. The measured values were analysed by a non-linear fit to the dose-response curve using a four parameter logistic model (Figure S6):
(§11) Figure S6: Non-linear regression of the dose-response curves of compounds 15c and 15f at the thermal equilibrium (∆, black) and after 5 minutes of 365 nm irradiation (red). […]
(§12) A maximal polarization control using just DMSO and a minimal polarization control using 1 µL of the 400 µM solution of 22 instead of inhibitor were performed as well as a blank control containing 1 µL of DMSO in 19 µL assay buffer. The mixture was incubated 10 min at 37 °C

The next data set concerns the target T2, Sirt1 (Homo sapiens, UniProt Q96EB6).
T2 construct: Expression and purification of Sirt1_133−747, Sirt2_56−356, and Sirt3_118−395 was carried out as described previously; made in house
T2 sequence (Q96EB6 133-747): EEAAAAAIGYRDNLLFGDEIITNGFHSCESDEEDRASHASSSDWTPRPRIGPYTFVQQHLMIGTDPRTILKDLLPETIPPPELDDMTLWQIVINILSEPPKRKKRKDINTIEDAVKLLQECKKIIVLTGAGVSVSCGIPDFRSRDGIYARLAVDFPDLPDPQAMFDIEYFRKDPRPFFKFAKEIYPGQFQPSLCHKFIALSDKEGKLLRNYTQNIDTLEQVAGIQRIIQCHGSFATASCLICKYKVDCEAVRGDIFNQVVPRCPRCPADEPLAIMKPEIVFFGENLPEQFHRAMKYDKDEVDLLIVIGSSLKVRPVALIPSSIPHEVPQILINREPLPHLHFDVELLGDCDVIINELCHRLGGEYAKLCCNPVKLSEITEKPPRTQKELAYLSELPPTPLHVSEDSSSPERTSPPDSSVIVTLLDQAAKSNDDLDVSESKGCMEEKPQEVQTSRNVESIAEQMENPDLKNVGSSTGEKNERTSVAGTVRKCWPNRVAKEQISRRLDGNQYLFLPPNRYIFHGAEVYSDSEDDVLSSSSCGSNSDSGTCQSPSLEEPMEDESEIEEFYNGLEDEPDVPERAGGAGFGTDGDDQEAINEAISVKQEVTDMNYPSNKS
Briefly: Fluorescence-based ZMAL deacetylase activity assay, Sirt1. The class given is biochemical. Conditions: non-irradiated. As for the experimental part: as §1, §2, §3, §4, §5, §6, §7, §8, §9, §10, §11
A maximal polarization control using just DMSO and a minimal polarization control using 1 µL of the 400 µM solution of 22 instead of inhibitor were performed as well as a blank control containing 1 µL of DMSO in 19 µL assay buffer. The mixture was incubated 10 min at 37 °C […]
(§13) (1 picture or pasted object on this page, not shown here)

In data set [1] the target is T3, Sirt2 (Homo sapiens, UniProt Q8IXJ6).
T3 construct: Expression and purification of Sirt1_133−747, Sirt2_56−356, and Sirt3_118−395 was carried out as described previously; made in house
T3 sequence (Q8IXJ6 56-356): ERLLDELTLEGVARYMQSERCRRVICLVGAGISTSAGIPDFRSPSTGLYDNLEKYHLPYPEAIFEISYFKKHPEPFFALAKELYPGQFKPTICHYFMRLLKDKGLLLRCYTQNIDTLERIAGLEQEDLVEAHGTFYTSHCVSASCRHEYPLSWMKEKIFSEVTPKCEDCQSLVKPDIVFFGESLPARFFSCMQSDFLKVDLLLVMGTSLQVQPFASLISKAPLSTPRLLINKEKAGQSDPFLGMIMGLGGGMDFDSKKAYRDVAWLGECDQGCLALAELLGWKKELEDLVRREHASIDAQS
Briefly: Fluorescence-based ZMAL deacetylase activity assay, Sirt2. In kind it is biochemical. Conditions: non-irradiated; for IC50: read-out: Sirt2 inhibition, IC50; for inhibition at 10 µM / inhibition at 100 µM: read-out: Sirt2 inhibition, percent inhibition relative to controls. The protocol: as §1, §2, §3, §4, §5, §6, §7, §8, §9, §10, §11, §12

A short description of data set [2]: UV/Vis spectra and half-life of thermal Z→E isomerization. The class given is physicochemical. As for the experimental part: Photochemistry: All photoisomerization experiments were conducted under ruby light of 630 nm and total exclusion of daylight. Illumination was executed using a Bio‐Link 254 Crosslinker from Vilber‐Lourmat equipped with six Vilber‐Lourmat T8‐L lamps (8 W, 365 nm). Visible light radiation of 630 nm (ruby) and 452 nm (blue) was derived from a Paulmann FlexLED 3D strip. All compounds were irradiated in solution using spectrophotometric grade solvents. Photoisomerization and UV/Vis‐spectra measurement was conducted in quartz glass cuvettes (114‐QS, Hellma Analytics) at room temperature.
UV/Vis Spectra and Half-Life of Thermal Isomerization
The half-life of the thermal Z→E isomerization after 5 minutes of 365 nm irradiation was determined by UV/Vis-spectroscopy. Therefore, solutions of the respective compounds (50 µM) in 5%, 50% or 90% DMSO in enzyme assay buffer (v/v) were prepared. An initial spectrum of the thermal equilibrium was recorded. After 5 minutes of irradiation with 365 nm the increase of absorbance at the thermal equilibrium maximum (λ∆max) was recorded as exemplified by compound 15c (Figure S3). Absorbance at λ = λ ∆max was plotted as a function of time. Non-linear regression yielded the half-life of the thermal Z→E isomerization (Table S1). For extrapolation of the reaction kinetics, the plateau value was set to the initial absorbance at λ=λ∆max. The following equation was used for non-linear regression:
y = (y0 − Plateau)e−kx + Plateau
Figure S3: Left: UV-Vis spectrum of 15c (50 µM) in assay buffer (5% DMSO, v/v) at the thermal equilibrium (∆) and the photostationary state (PSS) after UV irradiation (365 nm). Right:
Absorbance of 15c (50 µm) in assay buffer (5% DMSO, v/v) at λ∆max = 328 nm after 5 minutes of UV (365 nm) irradiation.
as §13

The target in data set [3] is T3, Sirt2. Also on record: method as in PMID 29685963. Conditions: lead 3, previously published; read-out: Sirt2 inhibition, IC50; cited from earlier work.
The mark [4] stands for this setting: read-out: Sirt1 inhibition, percent inhibition relative to controls.
The mark [5] stands for this setting: read-out: Sirt3 inhibition, percent inhibition relative to controls.

Read-outs that look alike come from different tables or passages of the source.

`COC(=O)c1cncc(/N=N/c2cc(C)c(N)c(C)c2)c1` [6 f] displayed a melting point of 190.6 °C. Also, the “Sirt3 inhibition (class)” value at Sirt3 is on record as “n.i. (n.i.: no inhibition detected (<30 % @ 100 μM))”. For the same molecule, the “Sirt1 inhibition (class)” value at Sirt1 is reported as “n.i. (n.i.: no inhibition detected (<30 % @ 100 μM))”. The “Sirt2 inhibition (class)” value at Sirt2 [1] is listed as “n.i. (n.i.: no inhibition detected (<30 % @ 100 μM))”.
Consider `Cc1cc(O)cc(C)c1/N=N/c1cncc(C(N)=O)c1` [7 a], for which the half-maximal inhibitory concentration (IC50) at Sirt3 is 9.5 ± 0.9 µM; on Sirt2 [1], 7.9 ± 0.6 µM. Further, the inhibition at 50 µM at Sirt1 (setting [4]) came to 14%.
In turn, `Cc1cc(/N=N/c2cncc(C(N)=O)c2)cc(C)c1O` [7 b] gave a melting point of 166.4 °C. Also, the IC50 at Sirt3 amounted to 7.9 ± 0.5 µM. In addition, in data set [2] (in acetonitrile), the “thermal Z→E isomerization (in words)” value is “rapid thermal isomerization”. Also, on Sirt1 (setting [4]), the inhibition at 50 µM amounted to 19%. The half-maximal inhibitory concentration (IC50) on Sirt2 [1] was 10.8 ± 0.6 µM.
`COc1cc(/N=N/c2cncc(C(N)=O)c2)cc(OC)c1O` [7 d] showed a melting point of 250.2 °C. The inhibition at 50 µM at Sirt3 (@ 50 μM, read-out: Sirt3 inhibition, percent inhibition relative to controls) worked out at 39%. Further, the inhibition at 10 µM on Sirt1 (setting [4]) turned out to be 10%. The inhibition at 10 µM at Sirt2 [1] was found to be 62%.
With `CN(C)c1ccc(/N=N/c2cncc(C(N)=O)c2)cc1` [7 e], the inhibition at 10 µM at Sirt3 (setting [5]) came out at 66%; at Sirt1 (setting [4]), 17%; at Sirt2 [1], 54%.
For the molecule `CNC(=O)c1cncc(/N=N/c2cc(C)c(N)c(C)c2)c1` [12 a], the inhibition at 100 µM was 45% at Sirt3 (setting [5]); 33% on Sirt1 (@ 100 μM, read-out: Sirt1 inhibition, percent inhibition relative to controls); 45% on Sirt2 [1].
In the case of `CCNC(=O)c1cncc(/N=N/c2cc(C)c(N)c(C)c2)c1` [12 b], the results for the inhibition at 10 µM on Sirt3 (setting [5]) and at Sirt2 [1] were 11% and 16%, respectively. In addition, on Sirt1, the “Sirt1 inhibition (class)” value is listed as “n.i. (n.i.: no inhibition detected (<30 % @ 100 μM))”.
The corresponding values for `CCCCNC(=O)c1cncc(/N=N/c2cc(C)c(N)c(C)c2)c1` [12 c] are 11%, 17% and “n.i. (n.i.: no inhibition detected (<30 % @ 100 μM))”.
Regarding `Cc1cc(/N=N/c2cncc(C(=O)NCCO)c2)cc(C)c1N` [12 d], the inhibition at 100 µM on Sirt3 (setting [5]) and on Sirt2 [1] was 43% each time. Besides, at Sirt1, the “Sirt1 inhibition (class)” value was “n.i. (n.i.: no inhibition detected (<30 % @ 100 μM))”.
Regarding `NC(=O)c1cncc(OCc2cccc(/N=N/c3ccc(N4CCOCC4)cc3)c2)c1` [20 d], the melting point came out at 202.1 °C. The inhibition at 10 µM on Sirt3 (setting [5]) stood at 33%. The “thermal Z→E isomerization (in words)” value in data set [2] (aqueous solution) is recorded as “rapid thermal Z→E isomerization”. For the same molecule, the “Sirt1 inhibition (class)” value on Sirt1 was “n.i. (n.i.: no inhibition detected (<30 % @ 100 μM))”. Besides, on Sirt2 [1], the inhibition at 10 µM stood at 49% and the concentration for half-maximal inhibition (IC50) is around 10 µM.
Turning to `Cc1cc(O)cc(C)c1/C=C/c1cncc(C(N)=O)c1` [compound 3], the IC50 on Sirt2 [3] is 25 µM.
As to `CCOC(=O)c1cncc(/N=N/c2cc(C)c(N)c(C)c2)c1` [compound 11], the “Sirt3 inhibition (class)” value at Sirt3 is listed as “n.i. (n.i.: no inhibition detected (<30 % @ 100 μM))”. The “Sirt1 inhibition (class)” value at Sirt1 was “n.i. (n.i.: no inhibition detected (<30 % @ 100 μM))”. Moreover, the “Sirt2 inhibition (class)” value at Sirt2 [1] was “n.i. (n.i.: no inhibition detected (<30 % @ 100 μM))”.

The melting point is the temperature of the solid-liquid transition. The term IC50 denotes the concentration at which inhibition is half-maximal. A word on the inhibition: it is the drop in the measured response relative to a control, in per cent.

These data come from paper PMC7496931, “Activation of Sirtuin 2 Inhibitors Employing Photoswitchable Geometry and Aqueous Solubility” (Chemmedchem, 2020).
